# Source: patent US20220213049A1, “S[…]-4-ONE FOR THE TREATMENT AND PROPHYLAXIS OF HEPATITIS B VIRUS INFECTION” (priority 2019, published 2022)
# pIC50: −log10 of the molar value.
# Tested on: HBeAg (surrogate marker for cccDNA) in HepDES19 cells
# Test: Engineered HepDES19 primary screen assay (HBeAg ELISA)
# Assay type: cell-based, HBV
# Details: Hepatitis B virus, HepDES19, 120 h, read-out: IC50 (HBeAg level, HepDES19 primary screen assay)
# Description: The assay was employed to screen for novel cccDNA inhibitors. HepDES19 is a cccDNA-producing cell line. In this cell line, HBeAg in the cell culture supernatant as surrogate marker, as HBeAg production depends on cccDNA level and activity. HepDES19 is an engineered cell line which contains a 1.1 unit length HBV genome, and pgRNA transcription from the transgene is controlled by Tetracycline (Tet). In the absence of Tet, pgRNA transcription will be induced, but HBV e antigen (HBeAg) could not be produced from this pgRNA due to very short leader sequence before the HBeAg start codon and the start codon is disrupted. Only after cccDNA is formed, the missing leader sequence and start codon mutation would be restored from the 3′-terminal redundancy of pgRNA, and then HBeAg could be synthesized. Therefore, HBeAg could be used as a surrogate marker for cccDNA (Zhou, T. et al., Antiviral Res. (2006), 72(2), 116-124; Guo, H. et al., J. Virol. (2007), 81(22), 12472-12484).
# HepDES19 cells were seeded at 2×10^6 cells per T150 flask and cultured with the culture medium (Dulbecco's Modified Eagle Medium: Nutrient Mixture F-12 [DMEM-F12, Gibco Cat. 11320-82], 10% Fetal Bovine Serum [FBS, Clontech Cat. 631101], 0.1 mM Non-Essential Amino Acids Solution [NEAA, Gibco Cat. 11140-050], 50 μg/mL Penicillin-Streptomycin [PS, Invitrogen Cat. 15140-163], 500 μg/mL Geneticin [G418, Invitrogen Cat. 10131-027]) containing 3 μg/mL Tet (Sigma, Cat. 87128) for 5 days. Cells were then seeded at 4×10^6 cells per T150 in the same culture medium as described above in the absence of Tet for 8 days. Cells were then harvested and frozen at density of 2×10^6 cells per ML. For compound testing, the frozen cells were thawed and seeded into 96-well plates at a density of 6×10^4 cells per well. At 24 hours after seeding, half log serial dilutions of compounds made with Dimethyl sulfoxide (DMSO, Sigma, Cat. D2650) were further diluted with the same culture medium as described above before they were added to the cells to reach desired final compound concentrations and 1% DMSO concentration. Plates were then incubated at 37° C. for another 5 days before measurement of HBeAg level and cell viability. Intracellular HBeAg level were measured with enzyme-linked immunosorbent assay (ELISA) kit (Shanghai Kehua Diagnostic Medical Products Co., Ltd). Cell viability was assessed using Cell Counting Kit-8 (DonJindo, Cat. CK04-20). IC50 values were derived from the dose-response curve using 4 parameter logistic curve fit method.
# The compounds of the present invention were tested for their capacity to inhibit extracellular HBeAg level as described herein.
row,Structure (SMILES),pIC50
1,"COc1cc(Br)c(OCCC(=O)NS(=O)(=O)C2CC2)cc1-c1cc(=O)c2cccc(Cl)c2o1 [Example 3, 3-[2-Bromo-5-(8-chloro-4-oxo-chromen-2-yl)-4-methoxy-phenoxy]-N-cyclopropylsulfonyl-propanamide]",6.24
2,"COc1cc(Br)c(OCC(=O)O)cc1-c1cc(=O)c2cccc(Cl)c2o1 [Example 4, 2-[2-Bromo-5-(8-chloro-4-oxo-chromen-2-yl)-4-methoxy-phenoxy]acetic acid]",5.71
3,"COc1cc(Br)c(OCCCOCC(=O)O)cc1-c1cc(=O)c2cccc(Cl)c2o1 [Example 6, 2-[3-[2-Bromo-5-(8-chloro-4-oxo-chromen-2-yl)-4-methoxy-phenoxy]propoxy]acetic acid]",5.78
4,"COc1cc(Cl)c(OC2CC(C(=O)O)C2)cc1-c1cc(=O)c2cccc(Cl)c2o1 (centres unmarked) [Example 7, 3-[2-Chloro-5-(8-chloro-4-oxo-chromen-2-yl)-4-methoxy-phenoxy]cyclobutanecarboxylic acid]",5.35
5,"COc1cc(C)c(OCCOC2CC(C(=O)O)C2)cc1-c1cc(=O)c2cccc(Cl)c2o1 (centres unmarked) [Example 9, 3-[2-[5-(8-Chloro-4-oxo-chromen-2-yl)-4-methoxy-2-methyl-phenoxy]ethoxy]cyclobutanecarboxylic acid]",5.28
6,"COc1cc(C)c(OCCC(=O)O)cc1-c1cc(=O)c2cccc(Cl)c2o1 [Example 10, 3-[5-(8-Chloro-4-oxo-chromen-2-yl)-4-methoxy-2-methyl-phenoxy]propanoic acid]",5.81
7,"COc1cc(OC)c(-c2cc(=O)c3cccc(Cl)c3o2)cc1OC1CC(C(=O)O)C1 (centres unmarked) [Example 12, 3-[5-(8-Chloro-4-oxo-chromen-2-yl)-2,4-dimethoxy-phenoxy]cyclobutanecarboxylic acid]",6.21
8,"COc1cc(OC)c(-c2cc(=O)c3cccc(Cl)c3o2)cc1OCCOC1CC(C(=O)O)C1 (centres unmarked) [Example 13, 3-[2-[5-(8-Chloro-4-oxo-chromen-2-yl)-2,4-dimethoxy-phenoxy]ethoxy]cyclobutanecarboxylic acid]",6.72
9,"Cc1ccc(-c2cc(=O)c3cccc(Cl)c3o2)cc1OCC(=O)O [Example 14, 2-[5-(8-Chloro-4-oxo-chromen-2-yl)-2-methyl-phenoxy]acetic acid]",5.20
10,"Cc1ccc(-c2cc(=O)c3cccc(Cl)c3o2)cc1O[C@H]1C[C@H](C(=O)O)C1 [Example 16, trans-3-[5-(8-chloro-4-oxo-chromen-2-yl)-2-methyl-phenoxy]cyclobutanecarboxylic acid]",5.20
11,"COc1ccc(-c2cc(=O)c3cccc(Cl)c3o2)cc1OC1CC(C(=O)O)C1 (centres unmarked) [Example 17, 3-[5-(8-Chloro-4-oxo-chromen-2-yl)-2-methoxy-phenoxy]cyclobutanecarboxylic acid]",6.14
12,"COc1ccc(-c2cc(=O)c3cccc(Cl)c3o2)cc1OCCOC1CC(C(=O)O)C1 (centres unmarked) [Example 18, 3-[2-[5-(8-Chloro-4-oxo-chromen-2-yl)-2-methoxy-phenoxy]ethoxy]cyclobutanecarboxylic acid]",6.28
13,"COc1ccc(-c2cc(=O)c3cccc(Cl)c3o2)cc1OCCC(=O)O [Example 19, 3-[5-(8-Chloro-4-oxo-chromen-2-yl)-2-methoxy-phenoxy]propanoic acid]",5.10
14,"O=c1cc(-c2ccc(C(F)(F)F)c(O[C@H]3C[C@@H](C(=O)O)C3)c2)oc2c(Cl)cccc12 [Example 20, Cis-3-[5-(8-chloro-4-oxo-chromen-2-yl)-2-(trifluoromethyl)phenoxy]cyclobutanecarboxylic acid]",5.67
15,"O=c1cc(-c2ccc(C(F)(F)F)c(O[C@H]3C[C@H](C(=O)O)C3)c2)oc2c(Cl)cccc12 [Example 21, trans-3-[5-(8-chloro-4-oxo-chromen-2-yl)-2-(trifluoromethyl)phenoxy]cyclobutanecarboxylic acid]",5.39
16,"COc1cc(-c2cc(=O)c3cccc(Cl)c3o2)cc(O[C@H]2C[C@@H](C(=O)O)C2)c1OC [Example 23, Cis-3-[5-(8-chloro-4-oxo-chromen-2-yl)-2,3-dimethoxy-phenoxy]cyclobutanecarboxylic acid]",5.13
17,"COc1cc(-c2cc(=O)c3cccc(Cl)c3o2)cc(OCCO[C@H]2C[C@H](C(=O)O)C2)c1OC [Example 24, Trans-3-[2-[5-(8-chloro-4-oxo-chromen-2-yl)-2,3-dimethoxy-phenoxy]ethoxy]cyclobutanecarboxylic acid]",5.84
18,"COc1cc(-c2cc(=O)c3cccc(Cl)c3o2)cc(OCC(=O)O)c1OC [Example 25, 2-[5-(8-Chloro-4-oxo-chromen-2-yl)-2,3-dimethoxy-phenoxy]acetic acid]",5.12
19,"COc1cc(Br)c(-c2cc(=O)c3cccc(Cl)c3o2)cc1O[C@H]1C[C@H](C(=O)O)C1 [Example 26, Trans-3-[4-bromo-5-(8-chloro-4-oxo-chromen-2-yl)-2-methoxy-phenoxy]cyclobutanecarboxylic acid]",5.97
20,"COc1cc(Br)c(-c2cc(=O)c3cccc(Cl)c3o2)cc1OCCO[C@H]1C[C@H](C(=O)O)C1 [Example 27, Trans-3-[2-[4-Bromo-5-(8-chloro-4-oxo-chromen-2-yl)-2-methoxy-phenoxy]ethoxy]cyclobutanecarboxylic acid]",5.49
21,"COc1c(OC2CC(C(=O)O)C2)cccc1-c1cc(=O)c2cccc(Cl)c2o1 (centres unmarked) [Example 28, 3-[3-(8-Chloro-4-oxo-chromen-2-yl)-2-methoxy-phenoxy]cyclobutanecarboxylic acid]",6.25
22,"COc1c(OCCO[C@H]2C[C@@H](C(=O)O)C2)cccc1-c1cc(=O)c2cccc(Cl)c2o1 [Example 29, Cis-3-[2-[3-(8-chloro-4-oxo-chromen-2-yl)-2-methoxy-phenoxy]ethoxy]cyclobutanecarboxylic acid]",5.49
23,"COc1ccc(OC2CC(C(=O)O)C2)cc1-c1cc(=O)c2cccc(Cl)c2o1 (centres unmarked) [Example 30, 3-[3-(8-Chloro-4-oxo-chromen-2-yl)-4-methoxy-phenoxy]cyclobutanecarboxylic acid]",5.12
24,"COc1ccc(OCC(=O)O)cc1-c1cc(=O)c2cccc(Cl)c2o1 [Example 32, 2-[3-(8-Chloro-4-oxo-chromen-2-yl)-4-methoxy-phenoxy]acetic acid]",5.15
25,"COc1ccc(OCCC(=O)O)cc1-c1cc(=O)c2cccc(Cl)c2o1 [Example 33, 3-[3-(8-Chloro-4-oxo-chromen-2-yl)-4-methoxy-phenoxy]propanoic acid]",5.17
26,"COc1c(-c2cc(=O)c3cccc(Cl)c3o2)ccc(Br)c1OCCO[C@H]1C[C@@H](C(=O)O)C1 [Example 34, Cis-3-[2-[6-bromo-3-(8-chloro-4-oxo-chromen-2-yl)-2-methoxy-phenoxy]ethoxy]cyclobutanecarboxylic acid]",6.03
27,"COc1c(-c2cc(=O)c3cccc(Cl)c3o2)ccc(Cl)c1OCC(=O)O [Example 37, 2-[6-Chloro-3-(8-chloro-4-oxo-chromen-2-yl)-2-methoxy-phenoxy]acetic acid]",5.00
28,"COc1ccc(-c2cc(=O)c3cccc(Cl)c3o2)c(OC)c1OCC(=O)O [Example 38, 2-[3-(8-Chloro-4-oxo-chromen-2-yl)-2,6-dimethoxy-phenoxy]acetic acid]",5.95
29,"CCOc1cc(Br)c(OCCC(=O)O)cc1-c1cc(=O)c2cccc(Cl)c2o1 [Example 39, 3-[2-Bromo-5-(8-chloro-4-oxo-chromen-2-yl)-4-ethoxy-phenoxy]propanoic acid]",6.96
